Data: PubChem BioAssay AID1259408 (Genetic Toxicology Data Bank (GENE-TOX), 2018)
The source made the active and inactive calls. How the calls were made is not given here.

System: GENE-TOX genotoxicity assays, various organisms and cells
Test: GENE-TOX mutagenicity studies
Settings: for call: Assay Type: In vivo carcinogenicity studies
Text: GENE-TOX provides genetic toxicology (mutagenicity) test data from expert peer review of open scientific literature for more than 3,000 chemicals from the United States Environmental Protection Agency (EPA). GENE-TOX was established to select assay systems for evaluation, review data in the scientific literature, and recommend proper testing protocols and evaluation procedures for these systems.
GENE-TOX covers the years 1991 - 1998. It is no longer updated.
This is an archive assay for GENE-TOX mutagenicity studies.

[1] = Species/Cell Type: Mouse, Sex: Male, Assay Type: Sperm morphology, Assay Code: SPI+, Evaluation Type: Evaluation A (Pre-1980)
[2] = Species/Cell Type: Salmonella typhimurium (one or more of the five standard strains: TA98, TA100, TA1535, TA1537, and TA1538), Assay Type: Histidine reverse gene mutation, Ames assay, Assay Code: SAL+, Evaluation Type: Evaluation A (Pre-1980)
[3] = Species/Cell Type: Drosophila melanogaster, Assay Type: Sex-linked recessive lethal gene mutation, Assay Code: SRL+, Evaluation Type: Evaluation A (Pre-1980)
[4] = Species/Cell Type: Nonhuman, Assay Code: CCG+, Evaluation Type: Evaluation A (Pre-1980)
[5] = Species/Cell Type: Syrian hamster embryo (SA7/SHE) cells, Assay Type: Cell transformation, viral enhanced, Assay Code: CT7+, Evaluation Type: Evaluation A (Pre-1980)
[6] = Species/Cell Type: Salmonella typhimurium (one or more of the five standard strains: TA98, TA100, TA1535, TA1537, and TA1538), Assay Type: Histidine reverse gene mutation, Ames assay, Assay Code: SALT, Evaluation Type: Evaluation A (Pre-1980)
[7] = Species/Cell Type: Human, Assay Type: Sister-chromatid exchange (SCE) in vitro, Assay Code: SC1+, Evaluation Type: Evaluation B (Post-1980)
[8] = Species/Cell Type: Mouse, Sex: Male, Assay Type: Sperm morphology, Assay Code: SPI-, Evaluation Type: Evaluation A (Pre-1980)
[9] = Species/Cell Type: Mammalian polychromatic erythrocytes, Assay Type: Micronucleus test, chromosome aberrations, Assay Code: MNTT, Evaluation Type: Evaluation B (Post-1980)
[10] = Species/Cell Type: Saccharomyces cerevisiae, Assay Type: Reverse gene mutation, Assay Code: YERT, Evaluation Type: Evaluation A (Pre-1980)
[11] = Species/Cell Type: Human lymphocytes, Assay Type: Sister-chromatid exchange (SCE) in vitro, Assay Code: SCL+, Evaluation Type: Evaluation B (Post-1980)
[12] = Species/Cell Type: Salmonella typhimurium, Assay Type: Forward and reverse gene mutation, host-mediated assay, Assay Code: HMA+, Evaluation Type: Evaluation A (Pre-1980)

For C[n+]1c2cc(N)ccc2cc2ccc(N)cc21 (tested in a mixture with another compound), which mutagenic call (Species/Cell Type: Aspergillus nidulans, Assay Type: Forward gene mutation, Assay Code: ASF+, Evaluation Type: Evaluation A (Pre-1980)) is on record?
The mutagenic call was “active; positive”.

What about the mutagenic call (Species/Cell Type: Mammalian cell culture, nonhuman, Assay Type: Micronucleus test in vitro, chromosome aberrations, Assay Code: MN&+U, Dose Response: Unconfirmed positive response, Evaluation Type: Evaluation A (Pre-1980)) of the same compound?
The mutagenic call was “active; positive”.

What about the mutagenic call (Species/Cell Type: Mammalian oocytes or early embryo, Assay Type: Chromosome aberrations in vivo, Assay Code: CYO-, Evaluation Type: Evaluation A (Pre-1980)) of the same compound?
Its mutagenic call is “inactive; negative”.

And the mutagenic call (Species/Cell Type: Mammalian polychromatic erythrocytes, Assay Type: Micronucleus test, chromosome aberrations, Assay Code: MNT+U, Dose Response: Unconfirmed positive response, Evaluation Type: Evaluation A (Pre-1980))?
Its mutagenic call is “active; positive”.

What about the mutagenic call [1] of the same compound?
The mutagenic call was “active; positive”.

And the mutagenic call (Species/Cell Type: Saccharomyces cerevisiae, Assay Type: Mitotic recombination or gene conversion, Assay Code: YECT, Evaluation Type: Evaluation A (Pre-1980))?
Its mutagenic call is “no conclusion”.

And the mutagenic call (Species/Cell Type: Saccharomyces cerevisiae, Assay Type: Mitotic recombination or gene conversion, Assay Code: YEH+, Evaluation Type: Evaluation A (Pre-1980))?
Its mutagenic call is “active; positive”.

What about the mutagenic call (Species/Cell Type: Salmonella typhimurium, Escherichia coli, Serratia marcesens, Assay Type: Forward and reverse gene mutation, host-mediated assay, Assay Code: HMN-, Evaluation Type: Evaluation A (Pre-1980)) of the same compound?
Its mutagenic call is “inactive; negative”.

For Nc1cc(N)c(N=Nc2ccc(S(=O)(=O)O)cc2)cc1N=Nc1ccc(S(=O)(=O)O)cc1 (tested in a mixture with another compound), which mutagenic call [2] is on record?
Its mutagenic call is “active; positive”.

CC1CO1 (stereo not given) was tested. Which mutagenic call (Species/Cell Type: Chinese hamster ovary (CHO) cells, Assay Type: Forward gene mutation at the HPRT locus, Assay Code: CHO+, Evaluation Type: Evaluation B (Post-1980)) did it give?
The mutagenic call was “active; positive”.

And the mutagenic call [3]?
Its mutagenic call is “active; positive”.

What about the mutagenic call (Species/Cell Type: Neurospora crassa, Assay Type: Reverse gene mutation, Assay Code: NER+, Evaluation Type: Evaluation A (Pre-1980)) of the same compound?
Its mutagenic call is “active; positive”.

What about the call [4] of the same compound?
The call was “active; positive”.

What about the mutagenic call (Species/Cell Type: Nonhuman, Assay Type: Sister-chromatid exchange (SCE) in vivo, Assay Code: SC3T, Evaluation Type: Evaluation B (Post-1980)) of the same compound?
The mutagenic call was “no conclusion”.

And the mutagenic call (Species/Cell Type: Rodents, Sex: Male, Assay Type: Dominant lethal test, Assay Code: DLT-, Evaluation Type: Evaluation A (Pre-1980))?
Its mutagenic call is “inactive; negative”.

What about the mutagenic call (Species/Cell Type: Schizosaccharomyces pombe, Assay Type: Reverse gene mutation, Assay Code: YEZ+, Evaluation Type: Evaluation A (Pre-1980)) of the same compound?
The mutagenic call was “active; positive”.

And the mutagenic call [5]?
The mutagenic call was “active; positive”.

With c1ccc2c(c1)Oc1ccccc1O2 as the compound, how does the call (Species/Cell Type: Nonhuman, Assay Code: CCG-L, Evaluation Type: Evaluation A (Pre-1980)) read?
Its call is “inactive; negative”.

[Cl-].[Cl-].[Cl-].[Cl-].[Cl-].[Cl-].[Mo] was tested. Which mutagenic call [5] did it give?
The mutagenic call was “active; positive”.

For COc1ccc2c3c([nH]c2c1)C(C)=NCC3, which mutagenic call [6] is on record?
Its mutagenic call is “no conclusion”.

Cc1ccc2cccnc2c1 was tested. Which mutagenic call (Species/Cell Type: Salmonella typhimurium (one or more of the five standard strains: TA98, TA100, TA1535, TA1537, and TA1538), Assay Type: Histidine reverse gene mutation, Ames assay, Assay Code: SAL+*, Activation: With metabolic activation, Evaluation Type: Evaluation A (Pre-1980)) did it give?
The mutagenic call was “active; positive”.

How did the mutagenic call (Species/Cell Type: Syrian hamster embryo (SA7/SHE) cells, Assay Type: Cell transformation, viral enhanced, Assay Code: CT7-, Evaluation Type: Evaluation A (Pre-1980)) turn out when O=C(O)c1ccc(C(=O)O)cc1 was run?
The mutagenic call was “inactive; negative”.

CC(=O)OC/C=C(C)/C=C/C=C(C)/C=C/C1=C(C)CCCC1(C)C was tested. Which mutagenic call [7] did it give?
The mutagenic call was “active; positive”.

What about the mutagenic call (Species/Cell Type: Nonhuman, Assay Type: Sister-chromatid exchange (SCE) in vitro, Assay Code: SC2T, Evaluation Type: Evaluation B (Post-1980)) of the same compound?
The mutagenic call was “no conclusion”.

How did the mutagenic call [8] turn out when Nc1cccc(Cl)c1 was run?
Its mutagenic call is “inactive; negative”.

Which mutagenic call [2] does the source give for CCCCN(N=O)C(CCC)OC(C)=O (stereo not given) here?
The mutagenic call was “active; positive”.

How did the mutagenic call [9] turn out when CCCCCCCCCCCCCCCCCCOCC(O)COP(=O)([O-])OCC[N+](C)(C)C (stereo not given) was run?
Its mutagenic call is “no conclusion”.

With CCN(CC)Cc1cc(Br)ccc1OCC(=O)NN as the compound, how does the mutagenic call [10] read?
Its mutagenic call is “no conclusion”.

For Cc1cc2c(C(C)C)c(O)c(O)c(C=O)c2c(O)c1-c1c(C)cc2c(C(C)C)c(O)c(O)c(C=O)c2c1O, which mutagenic call [11] is on record?
Its mutagenic call is “active; positive”.

And the mutagenic call [7]?
The mutagenic call was “active; positive”.

And the mutagenic call (Species/Cell Type: Human, Sex: Male, Assay Type: Sperm morphology, Assay Code: SPH+, Evaluation Type: Evaluation A (Pre-1980))?
The mutagenic call was “active; positive”.

And the mutagenic call [1]?
Its mutagenic call is “active; positive”.

And the mutagenic call (Species/Cell Type: Rabbit, Sex: Male, Assay Type: Sperm morphology, Assay Code: SPRT, Evaluation Type: Evaluation A (Pre-1980))?
The mutagenic call was “no conclusion”.

What about the mutagenic call (Species/Cell Type: Rat, Sex: Male, Assay Type: Sperm morphology, Assay Code: SPA+, Evaluation Type: Evaluation A (Pre-1980)) of the same compound?
Its mutagenic call is “active; positive”.

With CNNC as the compound, how does the mutagenic call (Species/Cell Type: Escherichia coli polA (W3119 vs P3478), Assay Type: Rec-assay, DNA effects (bacterial DNA repair), Assay Code: RE1+, Evaluation Type: Evaluation A (Pre-1980)) read?
Its mutagenic call is “active; positive”.

What about the mutagenic call (Species/Cell Type: Escherichia coli polA (W3119 vs P3478), Assay Type: Rec-assay, DNA effects (bacterial DNA repair), Assay Code: RE1T, Evaluation Type: Evaluation A (Pre-1980)) of the same compound?
Its mutagenic call is “no conclusion”.

And the mutagenic call (Species/Cell Type: Mammalian polychromatic erythrocytes, Assay Type: Micronucleus test, chromosome aberrations, Assay Code: MNT+, Evaluation Type: Evaluation B (Post-1980))?
Its mutagenic call is “active; positive”.

And the mutagenic call (Species/Cell Type: Mammalian polychromatic erythrocytes, Assay Type: Micronucleus test, chromosome aberrations, Assay Code: MNTT, Evaluation Type: Evaluation A (Pre-1980))?
Its mutagenic call is “no conclusion”.

What about the mutagenic call [9] of the same compound?
Its mutagenic call is “no conclusion”.

What about the call [4] of the same compound?
Its call is “active; positive”.

What about the mutagenic call (Species/Cell Type: Nonhuman, Assay Type: Sister-chromatid exchange (SCE) in vitro, Assay Code: SC2+D, Dose Response: With dose response, Evaluation Type: Evaluation B (Post-1980)) of the same compound?
The mutagenic call was “active; positive”.

And the mutagenic call (Species/Cell Type: Saccharomyces cerevisiae, Assay Type: Mitotic recombination or gene conversion, Assay Code: YEHT, Evaluation Type: Evaluation A (Pre-1980))?
Its mutagenic call is “no conclusion”.

And the mutagenic call (Species/Cell Type: Salmonella typhimurium (one or more of the five standard strains: TA98, TA100, TA1535, TA1537, and TA1538), Assay Type: Histidine reverse gene mutation, Ames assay, Assay Code: SAL-, Evaluation Type: Evaluation A (Pre-1980))?
The mutagenic call was “inactive; negative”.

And the mutagenic call (Species/Cell Type: Salmonella typhimurium, Assay Type: Forward and reverse gene mutation, body fluid assay, Assay Code: BFU-, Evaluation Type: Evaluation A (Pre-1980))?
The mutagenic call was “inactive; negative”.

What about the mutagenic call [12] of the same compound?
Its mutagenic call is “active; positive”.

What about the mutagenic call (Species/Cell Type: Syrian hamster embryo (SHE) cells, Assay Type: Cell transformation, clonal assay, Assay Code: CTCT, Evaluation Type: Evaluation A (Pre-1980)) of the same compound?
Its mutagenic call is “no conclusion”.

What does the source list for O=NN1CCOCC1?
mutagenic call (Species/Cell Type: Chinese hamster lung (V79) cells, Assay Type: Forward gene mutation at the HPRT or ouabain locus, Assay Code: V79+, Evaluation Type: Evaluation A (Pre-1980)): active; positive; mutagenic call [3]: active; positive; mutagenic call (Species/Cell Type: Drosophila melanogaster, Sex: Male, Assay Type: Heritable translocation test, chromosome aberrations, Assay Code: DHTT, Evaluation Type: Evaluation A (Pre-1980)): no conclusion; mutagenic call (Species/Cell Type: Human lymphocytes or leukocytes, Assay Type: Chromosome aberrations in vivo, Assay Code: CY8+, Evaluation Type: Evaluation A (Pre-1980)): active; positive; mutagenic call (Species/Cell Type: Mammalian polychromatic erythrocytes, Assay Type: Micronucleus test, chromosome aberrations, Assay Code: MNT+, Evaluation Type: Evaluation A (Pre-1980)): active; positive; mutagenic call [8]: inactive; negative; mutagenic call (Species/Cell Type: Nonhuman lymphocytes or leukocytes, Assay Type: Chromosome aberrations in vivo, Assay Code: CY%+, Evaluation Type: Evaluation A (Pre-1980)): active; positive; call [4]: active; positive; mutagenic call (Species/Cell Type: Nonhuman, Assay Type: Sister-chromatid exchange (SCE) in vitro, Assay Code: SC2+D*, Activation: With metabolic activation, Dose Response: With dose response, Evaluation Type: Evaluation B (Post-1980)): active; positive; mutagenic call (Species/Cell Type: Nonhuman, Assay Type: Sister-chromatid exchange (SCE) in vivo, Assay Code: SC3+D, Dose Response: With dose response, Evaluation Type: Evaluation B (Post-1980)): active; positive; mutagenic call (Species/Cell Type: Rat primary hepatocytes, Assay Type: Unscheduled DNA synthesis (UDS) in vitro, DNA effects, Assay Code: UDP+, Evaluation Type: Evaluation A (Pre-1980)): active; positive; mutagenic call [6]: no conclusion; mutagenic call [12]: active; positive

How did the mutagenic call [10] turn out when CN(C)Cc1cc(Br)ccc1OCC(=O)N/N=C/c1ccccc1O was run?
Its mutagenic call is “no conclusion”.

Cc1cc(=O)oc2cc(O)ccc12 was tested. Which mutagenic call (Species/Cell Type: Allium cepa, Assay Type: Chromosome aberrations, Assay Code: ALC+, Evaluation Type: Evaluation A (Pre-1980)) did it give?
Its mutagenic call is “active; positive”.

For CCc1ccc(O)c(O)c1, which mutagenic call (Species/Cell Type: Allium cepa, Assay Type: Chromosome aberrations, Assay Code: ALC-, Evaluation Type: Evaluation A (Pre-1980)) is on record?
The mutagenic call was “inactive; negative”.

Cc1cc2nc3cc(C)c(N)cc3[n+](-c3ccccc3)c2cc1N was tested. Which mutagenic call (Species/Cell Type: Bacillus subtilis (H17 vs M45), Assay Type: Rec-assay, spot test, DNA effects (bacterial DNA repair), Assay Code: REWT, Evaluation Type: Evaluation A (Pre-1980)) did it give?
The mutagenic call was “no conclusion”.

Which mutagenic call [11] does the source give for CCCC=O here?
Its mutagenic call is “active; positive”.

And the mutagenic call [7]?
Its mutagenic call is “active; positive”.
